In article PMC6646405, “A quantitative, high-throughput method identifies protein–glycan interactions via mass spectrometry” (Communications Biology, 2019):
“And” between values parts separate entries of the source, which are not always exact repeats. Equal values may be shown once.

How the values were obtained:
[1] = target: T1, human neuraminidase 3 (NEU3) (Homo sapiens, UniProt Q9UQ49); experiment: Time-resolved CUPRA enzyme kinetics, NEU3; assay type: biochemical
T1 construct: made in house
T1 sequence (Q9UQ49 1-428): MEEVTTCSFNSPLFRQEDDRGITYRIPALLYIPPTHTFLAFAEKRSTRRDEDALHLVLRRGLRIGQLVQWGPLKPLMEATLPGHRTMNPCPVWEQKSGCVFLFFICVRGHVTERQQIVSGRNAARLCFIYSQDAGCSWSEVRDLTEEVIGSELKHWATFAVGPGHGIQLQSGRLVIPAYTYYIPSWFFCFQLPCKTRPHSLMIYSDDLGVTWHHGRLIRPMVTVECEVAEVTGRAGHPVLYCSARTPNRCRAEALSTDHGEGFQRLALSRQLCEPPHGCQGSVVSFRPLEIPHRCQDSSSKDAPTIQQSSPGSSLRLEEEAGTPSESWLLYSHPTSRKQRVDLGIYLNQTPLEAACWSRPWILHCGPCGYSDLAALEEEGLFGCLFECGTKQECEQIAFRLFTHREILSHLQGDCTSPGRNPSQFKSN
Description: To apply CUPRA in this capacity, two or more substrates of interest are introduced, as their corresponding OS^mod, to a solution containing the desired CAZyme. Changes in substrate concentrations, as well as those of the corresponding enzyme products, are determined from the relative abundances of OS^mod-bound ^UniPproxy measured by time-resolved ESI-MS. Because of the manner in which the substrate and product concentrations are measured, the assay is insensitive to differences in their ESI-MS response factors and, consequently, independent of the nature of the chemical modification catalyzed by the enzyme. As a result, time-resolved CUPRA eliminates the need for calibration curves or internal standards, which are generally required with ESI-MS-based enzyme kinetics assays.
Two glycosyl hydrolases, human neuraminidase 2 (NEU2) and 3 (NEU3), which preferentially cleave α2-3-linked Neu5Ac residues, were used to illustrate the ease with which time-resolved CUPRA can establish substrate specificities. We incubated libraries of the Neu5Ac-containing OS^mod with NEU2 (Fig. 2d) or NEU3 (Fig. 2e) and monitored their conversion to the corresponding desialylated OS^mod products at pH 7 and 25 °C. […] All OS^mod containing terminal α2-3-linked Neu5Ac were substrates of NEU3, with initial rates that are 10–50% that of HMO03. […]

[2] = target: Sambucus nigra lectin (SNA) (Sambucus nigra, UniProt Q41358); assay type: binding
Sequence of Sambucus nigra lectin (SNA) (Q41358 309-570 limits assumed): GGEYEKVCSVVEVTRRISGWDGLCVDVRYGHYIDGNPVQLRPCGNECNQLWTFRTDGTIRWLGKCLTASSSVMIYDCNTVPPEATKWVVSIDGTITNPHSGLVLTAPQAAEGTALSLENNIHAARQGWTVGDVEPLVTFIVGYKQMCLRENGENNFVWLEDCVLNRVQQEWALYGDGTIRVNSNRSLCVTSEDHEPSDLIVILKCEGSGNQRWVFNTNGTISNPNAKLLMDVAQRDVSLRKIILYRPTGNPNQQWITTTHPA
Sequence of Sambucus nigra lectin (SNA) (Q41358 29-289 partner limits assumed): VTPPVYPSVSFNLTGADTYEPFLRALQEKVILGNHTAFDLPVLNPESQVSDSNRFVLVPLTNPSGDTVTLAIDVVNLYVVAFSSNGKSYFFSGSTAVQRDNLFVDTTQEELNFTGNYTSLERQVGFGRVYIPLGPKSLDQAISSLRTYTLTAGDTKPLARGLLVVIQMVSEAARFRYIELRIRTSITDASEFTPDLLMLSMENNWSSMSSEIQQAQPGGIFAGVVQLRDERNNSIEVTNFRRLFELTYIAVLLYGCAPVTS

## CC(=O)N[C@H]1[C@H](O[C@@H]2[C@H](O[C@]3(C(=O)O)C[C@H](O)[C@@H](NC(C)=O)[C@H]([C@H](O)[C@@H](CO)O[C@]4(C(=O)O)C[C@H](O)[C@@H](NC(C)=O)[C@H]([C@H](O)[C@H](O)CO)O4)O3)[C@@H](O)[C@H](O[C@H]3[C@H](O)[C@@H](O)[C@H](N(CCOCCOCCNC(=O)[C@H](Cc4ccccc4)NC(=O)[C@H](Cc4ccccc4)NC(=O)CCCC(=O)NCCc4ccc(S(N)(=O)=O)cc4)C(C)=O)O[C@@H]3CO)O[C@@H]2CO)O[C@H](CO)[C@H](O)[C@@H]1O [GA10, GalNAcβ1-4(Neu5Acα2-8 Neu5Acα2-3)Galβ1-4Glc-CL]
[1]; pH 7, 25 °C
  substrate specificity of NEU3: substrates for NEU3
[1]; time-resolved CUPRA, 200 mM aqueous ammonium acetate pH 7, 25 °C, relative to HMO03
  Relative activity NEU3: 0.292
[2]
  DIi(5uM SNA): 1 and 0.9993 and 0.9948 and 0.9939
  average DI: 0.9971
